In US20130165368A1, “ANTIMICROBIAL COMPOUNDS” (priority 2010, published 2013) one finds MIC data, which are given here for one molecule.

Assay type in all cases: cell-based
In assay [1] the test system is Enterococcus casseliflavus (VRE) Clin waste. Briefly: MIC agar dilution, VRE strain 23. The method, then: (§1) Molar equivalent concentrations were used to allow comparison between compounds of differing molecular mass. Due to weighing difficulties, any compound in solid form was melted in a water bath prior to dilution. To make ten-times strength concentrations, which takes into account agar dilution, 0.0352 mmol of each compound was weighed into plastic universal bottles and 4 mL of sterile distilled water (SDW) was added. To produce a homogenous emulsion the universals were vortexed; once achieved the emulsions were serial diluted by adding 2 mL to 2 mL of SDW.
(§2) For every 100 mL of Isosensitest agar (IST) (CM0471; Oxoid, Basingstoke, England), 3.1 g of the IST powder was added to 100 mL SDW (as per manufacturer's instructions) and sterilised for 15 minutes at 121° C. Once sterilised, the molten agar was cooled to 50° C. in a water-bath. Subsequently 4.8 g of CCEY powder (BC2160; Bioconnections, Wetherby, England), also known as Brazier's medium, was added to 100 mL SDW for every 100 mL of agar needed. This was then sterilised for 15 minutes at 121° C. Once sterilised the molten agar was cooled to 50° C. in a water-bath and 4 mL of egg-yolk emulsion (S2073; TCS Biosciences Ltd, Buckingham, United Kingdom) and 1 mL of lysed defibrinated horse blood (HB035; TCS Biosciences Ltd, Buckingham, United Kingdom) were also added for every 100 mL needed. Horse blood lysis is achieved by dilution to half concentration with SDW; when fully lysed the mixture will turn dark red in colour.
(§3) 18 mL agar was added to each universal and then poured into sterile Petri dishes. This step creates a 1/10 dilution resulting in agar plates of the required strength. Control plates for each set of strains were created by adding 18 mL of agar to 2 mL of SDW.
(§4) Suspensions of each bacterial species were prepared with a density equal to that of a 0.5 McFarland standard using a densitometer. All suspensions were made using sterile distilled water and fresh 18-20 hour cultures. As a 0.5 McFarland standard contains 1.5×10^8 CFU/mL and the multipoint inoculators applies 1 μL spots of liquid, each bacterial suspension was diluted 1/15 (20 μL suspension to 280 μL sterile distilled water).
(§5) Bacterial suspensions were prepared from fresh 18-24 hour cultures as previously described. 1 μL of each strain was inoculated onto all 100 agar plates containing a different chemical concentration and the 2 control plates. This was done using a multipoint inoculator which inoculates 20 strains per plate. All plates were incubated for 22 hours at 37° C. in aerobic conditions.
(§6) Each plate was examined for bacterial growth after 22 and 48 hours, with each being incubated in between examinations. A positive result was recorded as growth of ≧10 colonies. A negative result was recorded as growth of <10 colonies as this is equivalent to 99.9% inhibition. The lowest concentration of chemical that inhibited growth was recorded as the MIC. The results are recorded in Table IV below, where the numbers are quoted in mmol/L.
(§7) Given the positive performance of the ethoxylates of lauryl alcohol in reducing the MIC for a number of the micro-organisms tested, further MIC testing of Laureth-1 [C12E1] through to Laureth-8 [C12E8] was conducted on each of the following: • 10 strains of vancomycin-resistant enterococci (VRE)—listed in Table V below; and • 20 strains of methicillin-resistant Staphylococcus aureus (MRSA)—listed in Table VI.
(§8) The alkanol, alkanol derivatives, agar plates, and inocula were all prepared in the same way as described above.
(§9) The plates were examined in the same manner as described above and the results are recorded in Table VII below, where the numbers are quoted in mmol/L.
For orientation: In agar dilution the substance is mixed into plates at graded concentrations.

In assay [2] the test system is Gram negative bacteria, Gram positive bacteria and pathogenic yeasts. Nature of the assay: MIC agar dilution, summary statements over the micro-organisms tested (Tables I, IX). The following applies: read-out: MIC.
From the text: For a better understanding, the present invention will now be more particularly described, by way of non-limiting example only, as follows. The micro-organisms shown in Table I overleaf were acquired from the National Collection of Type Cultures (NCTC), Colindale, United Kingdom; the American Type Culture Collection (ATCC), Manassas, United States and the National Collection of Pathogenic Fungi (NCPF), Colindale, United Kingdom. They include Gram negative bacteria, Gram positive bacteria and pathogenic yeasts.
Throughout the period of testing the microbial strains were subcultured and incubated for 18-20 hours at 37° C. on a weekly basis. Horse blood agar plates were used to sustain the micro-organisms both prior to and throughout testing. The alkoxylated alkanols listed in Table II below were obtained (these are obtainable from Sigma-Aldrich Company Ltd, Dorset, England), each having a GC purity of at least 97%.
as §1
Myristyl alcohol and lauryl alcohol were re-weighed and dissolved in 25 μL of the polar solvent 1-methyl-2-pyrrolidone (M6762; Sigma-Aldrich) in sterile glass universals due to an inability to achieve an even suspension. To maintain an even emulsion in the presence of SDW 37.5 μL of the non-ionic detergent Tween 20 (P1379, Sigma-Aldrich) was also added. 3.9375 mL of SDW was added to these, to create a 4 mL volume; they were vortexed and diluted as before.
as §2, §3, §4
Bacterial suspensions were prepared from fresh 18-24 hour cultures as previously described. 1 μL of each strain was inoculated onto all 100 agar plates containing a different chemical concentration and the 2 control plates. This was done using a multipoint inoculator which inoculates 20 strains per plate. All plates were incubated for 22 hours at 37° C. in aerobic conditions. […]

A further assay deals with MRSA EMRSA 16 21354/95. Briefly: MIC agar dilution, MRSA strain 44. The following applies: Staphylococcus aureus. The method, then:
as §1, §2, §3, §4, §5, §6, §7, §8, §9

In assay [3] the test system is methicillin-resistant Staphylococcus aureus (MRSA). Briefly: MIC agar dilution, summary over 20 MRSA strains. The following applies: MRSA bacterial samples, 22 and 48 hour. The method, then: as §7, §8, §9
The subject of another assay is Escherichia coli. Briefly: MIC agar dilution, micro-organism 1 (10418). The settings on record: Escherichia coli 10418, read-out: MIC. In a few lines: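 Twofold dilutions of compound emulsions in water were set in Isosensitest agar with Brazier's CCEY medium, egg yolk and lysed horse blood. Spots of 1 µL from 0.5 McFarland suspensions diluted 1/15 were incubated aerobically at 37 °C and read at 22 and 48 h. MIC (mmol/L) was the lowest concentration giving <10 colonies.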

For the next assay, the system named is MRSA BEL 97598. Nature of the assay: MIC agar dilution, MRSA strain 34. The following applies: Staphylococcus aureus. The method, then:
as §1, §2, §3, §4, §5, §6, §7, §8, §9

The test system of assay [4] is Enterococcus faecium (VRE) 255693 N. Tyneside. Briefly: MIC agar dilution, VRE strain 22. The method, then: as §1, §2, §3, §4, §5, §6, §7, §8, §9
The next assay has as its system MRSA EMRSA 16 03732/95. Briefly: MIC agar dilution, MRSA strain 45. The following applies: Staphylococcus aureus. The method, then: as §1, §2, §3, §4, §5, §6, §7, §8, §9
For assay [5], the system named is vancomycin-resistant enterococci (VRE). Nature of the assay: MIC agar dilution, summary over 10 VRE strains. The following applies: Enterococcus; most, if not all, of the VRE samples. The method, then:
as §7, §8, §9

The next assay concerns MRSA FIN 54511 (E6). Nature of the assay: MIC agar dilution, MRSA strain 32. The settings on record: Staphylococcus aureus. The method, then: as §1, §2, §3, §4, §5, §6, §7, §8, §9

Values after ≈ are worked out from the molar mass of the structure shown. Like-named read-outs stand apart in the source and are kept apart here.

On to `CCCCCCCCCCCCOCCOCCOCCOCCO` [L4, Tetraethylene Glycol Monododecyl Ether], for which the minimal inhibitory concentration (MIC) – broadly, the smallest concentration in the dilution series that meets the test's criterion for growth inhibition – was 110 µM (≈ 39.9 µg/mL) in assay [1] (22 hrs); 110 µM (≈ 39.9 µg/mL) in [1] (48 hrs); around 110 µM (≈ 39.9 µg/mL) in assay [2]; 55 µM (≈ 19.9 µg/mL) in the assay on MRSA EMRSA 16 21354/95 (22 hrs); 55 µM (≈ 19.9 µg/mL) against MRSA EMRSA 16 21354/95 (48 hrs); around 55 µM (≈ 19.9 µg/mL) in [3]. Also, the MIC in the assay with Escherichia coli (22 hrs) is above 880 µM; in the assay on Escherichia coli (48 hrs) it was above 880 µM; with MRSA BEL 97598 (22 hrs), 110 µM (≈ 39.9 µg/mL); against MRSA BEL 97598 (48 hrs), 110 µM (≈ 39.9 µg/mL); in assay [4] (22 hrs) it was 440 µM (≈ 160 µg/mL); in assay [4] (48 hrs), 880 µM (≈ 319 µg/mL). For the same molecule, the MIC against MRSA EMRSA 16 03732/95 (22 hrs) is 110 µM (≈ 39.9 µg/mL); against MRSA EMRSA 16 03732/95 (48 hrs), 110 µM (≈ 39.9 µg/mL); in assay [5], at most 440 µM; with MRSA FIN 54511 (E6) (22 hrs), 110 µM (≈ 39.9 µg/mL); against MRSA FIN 54511 (E6) (48 hrs) it was 110 µM (≈ 39.9 µg/mL).
